Assay: 19F NMR of fluorinated gemcitabine metabolites in tissue
Type: in vivo, mouse
Conditions: KPC tumors; 10 days of treatment; vs untreated tumors
Procedure: Mice were treated with indicated regiments for 12 days. […] Tissues were rapidly dissected and snap frozen in liquid nitrogen. Tissue specimens were maintained at −80° C. until subjected to nucleotide extraction. Samples were homogenized in a Qiagen TissueLyser with a 5 mm ball bearing for 2×6 minutes at 25 KHz, in the presence of 4 volumes of ice-cold acetonitrile (μL acetonitrile=4×[…] of tissue). An equal volume of water was added and then the sample was spun at 14,000 rpm for 10 minutes at 4° C. Supernatant was freeze dried, resuspended in 600 μL of D2O and transferred to a 5 mm standard NMR tube (Wilmad) for ^19F NMR analysis on a Bruker 600 MHZ (14.1T) Avance NMR spectrometer using a QNP probe. Acquisition parameters included a 1D pulse sequence of ^19F observation and inverse-gated ^1H decoupling, spectral sweep width of 177 ppm (100000 Hz), 4096 scans and 1.65 sec of repetition time. Total acquisition time for each sample was about 1 hr 55 min. Trichloro-fluoro-methane was used for ^19F NMR chemical shift calibrations. A broad hump observed in the baseline of ^19F NMR spectra was removed by application of Linear-prediction (LP) back projection to the time domain data by using 2000 (number of LP) coefficients and 128 back-prediction points prior to Fourier transformation and phase correction. […]

SMILES: CC1=C2C[C@H]3[C@@H](CC[C@@H]4C[C@H](NS(C)(=O)=O)CC[C@@]43C)[C@@H]2CC[C@@]2(C1)O[C@@H]1C[C@H](C)CN[C@H]1[C@H]2C.Cl [Compound A]
- concentration of gemcitabine metabolites in KPC tumor tissue: No difference
